Legend:
large crabgrass = test: Upland soil treatment test (5); format: in vivo; settings: dosage 100 g a.i./hectare, 20th day after treatment; also: ranges in brackets are in %
Procedure: (§1) 90 Parts by weight of the above carrier and 10 parts by weight of each of Compounds obtained in the above Preparation Examples were uniformly pulverized and mixed to obtain herbicides. Further, for Herbicide Comparative Examples, comparative herbicides were prepared by uniformly pulverizing and mixing 90 parts by weight of the above carrier and 10 parts by weight of each of the following Compounds x, y, A, B and C.
(§2) (5) Biological Test (Upland Soil Treatment Test, Herbicide Examples 10-26 and Comparative Example 9)
(§3) Seeds of weeds such as large crabgrass, barnyard grass, green foxtail, cocklebur, velvetleaf and slender amaranth and seeds of corn, wheat and barley were sown in 1/5,000-are Wagner pots filled with upland soil, and covered with upland soil. Then, a predetermined amount of the herbicide prepared in the above (1) was suspended in water and uniformly sprayed onto the soil surface. Thereafter, the plants were grown in the greenhouse, and on 20th day after the treatment, the herbicide was evaluated for herbicidal efficacy.
(§4) The dosage of each herbicide is indicated as an amount of the active ingredient per hectare. Further, air-dried weight were measured, and herbicidal efficacy and the pytotoxicity to corn are shown on the basis of the ratings described below.

cocklebur = test: Upland soil treatment test (5); format: in vivo; settings: dosage 100 g a.i./hectare, 20th day after treatment; also: ranges in brackets are in %
Procedure: as §1, §2, §3, §4

velvetleaf = test: Upland soil treatment test (5); format: in vivo; settings: dosage 100 g a.i./hectare, 20th day after treatment; also: ranges in brackets are in %
Procedure: as §1, §2, §3, §4

green foxtail = test: Upland soil treatment test (5); format: in vivo; settings: dosage 100 g a.i./hectare, 20th day after treatment; also: ranges in brackets are in %
Procedure: as §1, §2, §3, §4

barnyard grass [1] = test: Upland soil treatment test (5); format: in vivo; settings: dosage 100 g a.i./hectare, 20th day after treatment; also: ranges in brackets are in %
Procedure: as §1, §2, §3, §4

slender amaranth = test: Upland soil treatment test (5); format: in vivo; settings: dosage 100 g a.i./hectare, 20th day after treatment; also: ranges in brackets are in %
Procedure: as §1, §2, §3, §4

corn = test: Upland soil treatment test (5), phytotoxicity; format: in vivo; settings: dosage 100 g a.i./hectare, 20th day after treatment
Procedure: as §1, §2, §3, §4

barnyard grass [2] = test: Submergence soil treatment test (4); format: in vivo; settings: twenty days after treatment; also: ranges in brackets are in %
Procedure: as §1
(§5) (4) Biological Test (Submergence Soil Treatment Test, Herbicide Examples 5˜9 and Comparative Examples 5˜8 and Reference Example 1 and 2)
(§6) 1/15,500-are porcelain pots were filled with paddy field soil, and seeds of barnyard grass and umbrella plant were sown in a surface layer of the soil, and paddy rice at the 2-leaf stage was transplanted. Then, the weeds were treated by uniformly spraying a diluted solution of a predetermined amount of the herbicide prepared in the above (1) onto the water surface at the time of germination of the weeds, and then the pots were allowed to stand in a greenhouse while water was properly sprayed. […] The dosage of each herbicide is shown as an amount of the active ingredient per 10 areas. Further, air-dried weights were measured, and the herbicidal efficacy and the phytotoxicity to the paddy rice were shown as follows.

umbrella plant = test: Submergence soil treatment test (4); format: in vivo; settings: twenty days after treatment; also: ranges in brackets are in %
Procedure: as §1, §5, §6

paddy rice = test: Submergence soil treatment test (4), phytotoxicity; format: in vivo; settings: twenty days after treatment
Procedure: as §1, §5, §6

Row | melting point [°C] | SMILES | Herbicidal Efficacy large crabgrass (large crabgrass) | Herbicidal Efficacy cocklebur (cocklebur) | Herbicidal Efficacy velvetleaf (velvetleaf) | Herbicidal Efficacy green foxtail (green foxtail) | Herbicidal Efficacy barnyard grass (barnyard grass [1]) | Herbicidal Efficacy slender amaranth (slender amaranth) | Phyto-toxicity to corn (corn) | Herbicidal Effficacy barnyard grass (barnyard grass [2]; dosage 1 g a.i./10 are) | Herbicidal Effficacy barnyard grass (barnyard grass [2]; dosage 3 g a.i./10 are) | Herbicidal Effficacy umbrella plant (umbrella plant; dosage 1 g a.i./10 are) | Herbicidal Effficacy umbrella plant (umbrella plant; dosage 3 g a.i./10 are) | Phytotoxicity to paddy rice (paddy rice; dosage 1 g a.i./10 are) | Phytotoxicity to paddy rice (paddy rice; dosage 3 g a.i./10 are) | Herbicidal Effficacy barnyard grass (barnyard grass [2]; dosage 10 g a.i./10 are) | Herbicidal Effficacy umbrella plant (umbrella plant; dosage 10 g a.i./10 are) | Phytotoxicity to paddy rice (paddy rice; dosage 10 g a.i./10 are)
1 | 263.7 to 263.9 | CCn1ncc(C(=O)c2cc(Cl)c3c(c2Cl)C(C)(C)CCS3)c1O [Compound 3] | – | – | – | – | – | – | – | – | – | – | – | – | – | – | – | –
2 | 178 to 179.6 | CCC(=O)Oc1c(C(=O)c2cc(C)c3c(c2C)C(C)(C)CCS3)cnn1CC [Compound 19] | 5 (0) | 5 (0) | 5 (0) | 2 (41-60) | 5 (0) | 5 (0) | 0 (100) | – | – | – | – | – | – | – | – | –
3 | – | CCn1ncc(C(=O)c2cc(C)c3c(c2C)C(C)(C)CCS3(=O)=O)c1OS(=O)(=O)c1ccccc1C [Compound 16] | 5 (0) | 5 (0) | 5 (0) | 5 (0) | 5 (0) | 5 (0) | 0 (100) | 5 (0) | 5 (0) | 2 (41-60) | 5 (0) | 0 (100) | 0 (100) | – | – | –
4 | 164.1 to 165.7 | CCn1ncc(C(=O)c2cc(C)c3c(c2C)C(C)(C)CCS3)c1OS(=O)(=O)CC [Compound 8] | 5 (0) | 5 (0) | 5 (0) | 4 (1-20) | 4 (1-20) | – | 0 (100) | – | – | – | – | – | – | – | – | –
5 | – | CCn1ncc(C(=O)c2cc(C)c3c(c2C)C(=NOC)CCS3(=O)=O)c1O [Comp'd C, reference compound] | – | – | – | – | – | – | – | – | 0 (81-100) | – | 3 (21-40) | – | 2 (90-94) | 4 (1-20) | 5 (0) | 5
6 | 202.2 to 203.4 | CCn1ncc(C(=O)c2cc(C)c3c(c2C)C(C)(C)CCS3(=O)=O)c1OS(C)(=O)=O [Compound 7, 4,4,5,8-tetramethyl-6-(1-ethyl-5-methanesulfonyloxypyrazol-4-yl)carbonylthiochroman-1,1-dioxide] | 5 (0) | 5 (0) | 5 (0) | 4 (1-20) | 5 (0) | 5 (0) | 0 (100) | – | – | – | – | – | – | – | – | –
7 | – | CCCCCCC(=O)Oc1c(C(=O)c2cc(C)c3c(c2C)C(C)(C)CCS3(=O)=O)cnn1CC [Compound 21] | 5 (0) | 5 (0) | 5 (0) | 4 (1-20) | 5 (0) | 5 (0) | 0 (100) | – | – | – | – | – | – | – | – | –
8 | – | CCn1ncc(C(=O)c2cc(C)c3c(c2C)C(C)(C)CCS3(=O)=O)c1OS(=O)(=O)c1ccc(C)cc1 [Compound 12] | 5 (0) | – | 5 (0) | 1 (61-80) | 5 (0) | 5 (0) | 0 (100) | – | – | – | – | – | – | – | – | –
9 | – | CCn1ncc(C(=O)c2cc(C)c3c(c2C)C(C)(C)CCS3(=O)=O)c1OCC(=O)c1ccccc1 [Compound 25] | 5 (0) | 5 (0) | 5 (0) | 2 (41-60) | 2 (41-60) | 5 (0) | 0 (100) | – | – | – | – | – | – | – | – | –
10 | – | CCCS(=O)(=O)Oc1c(C(=O)c2cc(C)c3c(c2C)C(C)(C)CCS3(=O)=O)cnn1CC [Compound 9] | 5 (0) | 5 (0) | 5 (0) | 5 (0) | 5 (0) | 5 (0) | 0 (100) | – | – | – | – | – | – | – | – | –
11 | – | CCn1ncc(C(=O)c2cc(C)c3c(c2C)C(C)(C)CCS3(=O)=O)c1OS(=O)(=O)c1ccc(OC)cc1 [Compound 14] | 5 (0) | 5 (0) | 5 (0) | 2 (41-60) | 5 (0) | 5 (0) | 0 (100) | 5 (0) | – | 3 (21-40) | – | 0 (100) | – | – | – | –
12 | – | CCCCCCCCS(=O)(=O)Oc1c(C(=O)c2cc(C)c3c(c2C)C(C)(C)CCS3(=O)=O)cnn1CC [Compound 11] | 5 (0) | 3 (21-40) | 5 (0) | 2 (41-60) | 3 (21-40) | 1 (61-80) | 0 (100) | 5 (0) | – | 5 (0) | – | 0 (100) | – | – | – | –
13 | – | CCCCC(=O)Oc1c(C(=O)c2cc(C)c3c(c2C)C(C)(C)CCS3(=O)=O)cnn1CC [Compound 20] | 5 (0) | 5 (0) | 5 (0) | 2 (41-60) | 3 (21-40) | – | 0 (100) | – | – | – | – | – | – | – | – | –
14 | – | CCn1ncc(C(=O)c2cc(C)c3c(c2C)C(C)(C)CCS3(=O)=O)c1OS(=O)(=O)c1ccc([N+](=O)[O-])cc1 [Compound 13] | 5 (0) | 5 (0) | 5 (0) | 2 (41-60) | 3 (21-40) | 2 (41-60) | 0 (100) | – | – | – | – | – | – | – | – | –
15 | – | CCCCS(=O)(=O)Oc1c(C(=O)c2cc(C)c3c(c2C)C(C)(C)CCS3(=O)=O)cnn1CC [Compound 10] | 5 (0) | 3 (21-40) | 5 (0) | 2 (41-60) | 5 (0) | 5 (0) | 0 (100) | 5 (0) | – | 5 (0) | – | 0 (100) | – | – | – | –
16 | 165.2 to 169 | CCn1ncc(C(=O)c2cc(C)c3c(c2C)C(C)(C)CCS3)c1OC(=O)c1ccc(Cl)cc1Cl [Compound 23] | – | – | – | – | – | – | – | – | – | – | – | – | – | – | – | –
17 | – | CCn1ncc(C(=O)c2cc(C)c3c(c2C)C(C)(C)CCS3)c1OCC(C)=O [Compound 24] | 5 (0) | 5 (0) | 5 (0) | 2 (41-60) | 5 (0) | 5 (0) | 0 (100) | – | – | – | – | – | – | – | – | –

Row | SMILES | melting point [°C] | Herbicidal Efficacy large crabgrass (large crabgrass) | Herbicidal Efficacy cocklebur (cocklebur) | Herbicidal Efficacy velvetleaf (velvetleaf) | Herbicidal Efficacy green foxtail (green foxtail) | Herbicidal Efficacy barnyard grass (barnyard grass [1]) | Herbicidal Efficacy slender amaranth (slender amaranth) | Phyto-toxicity to corn (corn) | Herbicidal Effficacy barnyard grass (barnyard grass [2]; dosage 1 g a.i./10 are) | Herbicidal Effficacy barnyard grass (barnyard grass [2]; dosage 3 g a.i./10 are) | Herbicidal Effficacy umbrella plant (umbrella plant; dosage 1 g a.i./10 are) | Herbicidal Effficacy umbrella plant (umbrella plant; dosage 3 g a.i./10 are) | Phytotoxicity to paddy rice (paddy rice; dosage 1 g a.i./10 are) | Phytotoxicity to paddy rice (paddy rice; dosage 3 g a.i./10 are) | Herbicidal Effficacy barnyard grass (barnyard grass [2]; dosage 10 g a.i./10 are) | Herbicidal Effficacy umbrella plant (umbrella plant; dosage 10 g a.i./10 are) | Phytotoxicity to paddy rice (paddy rice; dosage 10 g a.i./10 are)
18 | CCn1ncc(C(=O)c2cc(C)c3c(c2C)C(C)(C)CCS3(=O)=O)c1OC(C)=O [Compound 18, 4,4,5,8-tetramethyl-6-(1-ethyl-5-acetoxypyrazol-4-yl)carbonylthiochroman-1,1-dioxide] | 187.7 to 191.4 | 5 (0) | 5 (0) | 5 (0) | 4 (1-20) | 5 (0) | 5 (0) | 0 (100) | – | – | – | – | – | – | – | – | –
